Source: article PMC8594528 (Proceedings of the National Academy of Sciences of the …, 2021)

Assays:
GSK-3β [1] = target: T1, GSK-3β (Homo sapiens, UniProt P49841); assay: in vitro kinase assay with recombinant GSK-3β and immunoprecipitated N protein as substrate, single concentration ([…]); type: biochemical
T1 construct: gene GSK3B; human recombinant GSK-3β

GSK-3β [2] = target: T1, GSK-3β; assay: in vitro kinase assay with recombinant GSK-3β; tau or immunoprecipitated N protein as substrate, gel mobility shift; type: biochemical

T1 sequence (P49841 whole entry): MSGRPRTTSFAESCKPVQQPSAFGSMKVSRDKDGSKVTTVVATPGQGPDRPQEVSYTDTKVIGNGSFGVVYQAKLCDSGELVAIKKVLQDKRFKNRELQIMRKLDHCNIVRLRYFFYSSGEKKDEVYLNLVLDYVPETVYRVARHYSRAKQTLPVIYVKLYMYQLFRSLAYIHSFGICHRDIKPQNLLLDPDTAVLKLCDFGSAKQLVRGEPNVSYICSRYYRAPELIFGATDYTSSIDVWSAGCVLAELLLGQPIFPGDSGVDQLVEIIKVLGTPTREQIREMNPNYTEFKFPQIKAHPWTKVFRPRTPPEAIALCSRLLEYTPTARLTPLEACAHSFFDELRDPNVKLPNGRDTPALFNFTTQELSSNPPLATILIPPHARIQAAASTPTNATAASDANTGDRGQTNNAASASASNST

| Structure (SMILES) | in vitro kinase assay with recombinant GSK-3β and immunoprecipitated N protein a (GSK-3β [1]) | in vitro kinase assay with recombinant GSK-3β; tau or immunoprecipitated N prote (GSK-3β [2]) |
| --- | --- | --- |
| Cc1c[nH]c(-c2cnc(NCCNc3ccc(C#N)cn3)nc2-c2ccc(Cl)cc2Cl)n1 [CHIR99021] | 2 µM | – |
| Cn1cc(C2=C(c3cn(C4CCN(Cc5ccccn5)CC4)c4ccccc34)C(=O)NC2=O)c2ccccc21 [Enzastaurin] | – | 0.5 µM |
